Assay results published in PMC6337383, “Discovery of Potent Inhibitors for the Large Neutral Amino Acid Transporter 1 (LAT1) by Structure-Based Methods” (International Journal of Molecular Sciences, 2018).

Target: T1, recombinant human LAT1 (Homo sapiens, UniProt Q01650)
T1 construct: made in house; host or cells: E. coli
Test: Inhibition of LAT1 mediated [3H]-His transport in proteoliposomes reconstituted with recombinant purified human LAT1
Type: biochemical
Settings: for inhibition at 100 µM: 100 µM compound; for % Residual Activity: 100 µM concentration, n = 3, Table S6; for LAT1 inhibition, activity in words: 100 μM compound, [3H]-His uptake in proteoliposomes
Experimental: All 30 compounds were evaluated for their potency to inhibit LAT1 mediated histidine transport in proteoliposomes reconstituted with recombinant purified human LAT1 (see Methods). […]
Human LAT1 was over-expressed in E. coli and was purified as previously described. In brief, solubilized cell lysate was centrifuged (12,000× g, 10 min, 4 °C); supernatant was applied on a His-Trap HP column (5 mL Ni Sepharose) connected to ÄKTA start system. The column was equilibrated with 10 mL buffer (20 mM Tris HCl pH 8.0, 10% glycerol, 200 mM NaCl, 0.1% sarkosyl) prior to supernatant application. The column was washed with 10 mL buffer (20 mM Tris HCl pH 8.0, 10% glycerol, 200 mM NaCl, 0.05% DDM, and 2 mM DTE) and the protein was eluted with the same buffer plus 400 mM imidazole. Purified protein was desalted, in order to remove imidazole, using a PD-10 column in a buffer containing 20 mM Tris HCl pH 8.0, 10% glycerol, 0.05% DDM and 10 mM DTE.
The purified human LAT1 was reconstituted by detergent removal approach using the batch-wise method, as previously described. In brief, the initial mixture contained: 4 μg of purified protein, 100 μL of 10% C12E8, 100 μL of 10% egg yolk phospholipids (w/v) in the form of liposomes that were prepared as previously described, 20 mM Tris HCl pH 7.5, and 10 mM L-His in a final volume of 700 μL. This mixture was incubated with 0.5 g of Amberlite XAD-4 for 90 min at 23 °C, 1200 rpm to retain detergent.
To perform transport assays, the external substrate was removed by gel filtration chromatography: 600 μL of proteoliposomes were passed through a Sephadex G-75 column (0.7 cm diameter × 15 cm height) pre-equilibrated with 20 mM Tris HCl pH 7.5 and a concentration of sucrose to balance internal osmolarity. Transport was started adding 5 μM [^3H]-His to proteoliposomes and stopped after 30 min according to the stop inhibitor method, as previously described. In brief, in controls 1.5 µM HgCl2 was added at time zero and radioactivity was subtracted to samples for calculating net transport. After stopping the transport reaction, 100 μL of proteoliposomes was subjected to gel filtration chromatography using a Sephadex G-75 column (0.6 cm diameter × 8 cm height), to separate the external from the internal radioactivity. Proteoliposomes were eluted with 1 mL 50 mM NaCl in 4 mL scintillation mixture and counted. […] Protein concentration was estimated by Chemidoc imaging system1 [104] to calculate the human LAT1 specific activity.

T1 sequence (Q01650 whole entry): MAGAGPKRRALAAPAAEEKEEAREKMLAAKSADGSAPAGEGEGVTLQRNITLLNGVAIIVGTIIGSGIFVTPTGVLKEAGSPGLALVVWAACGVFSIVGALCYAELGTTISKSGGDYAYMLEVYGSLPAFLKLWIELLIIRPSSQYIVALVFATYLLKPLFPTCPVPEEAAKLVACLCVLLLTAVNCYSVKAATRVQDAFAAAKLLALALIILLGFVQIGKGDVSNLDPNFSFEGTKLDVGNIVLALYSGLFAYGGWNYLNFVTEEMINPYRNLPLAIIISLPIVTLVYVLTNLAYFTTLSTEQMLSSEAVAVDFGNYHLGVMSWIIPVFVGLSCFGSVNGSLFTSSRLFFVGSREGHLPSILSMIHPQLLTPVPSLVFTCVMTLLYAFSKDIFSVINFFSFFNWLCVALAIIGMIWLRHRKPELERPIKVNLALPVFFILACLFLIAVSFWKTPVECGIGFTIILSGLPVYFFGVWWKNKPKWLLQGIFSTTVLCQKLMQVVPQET

| Structure (SMILES) | inhibition at 100 µM | % Residual Activity | LAT1 inhibition, activity in words |
| --- | --- | --- | --- |
| N[C@@H](Cc1cn(Cc2ccccc2)cn1)C(=O)O [Compound 40] | 80 to 90% | 11.34% |  |
| NC(Cc1cccc(OCc2ccccc2)c1)C(=O)O (stereo not drawn) [Compound 35] | 80 to 90% | 11.78% | highly active |
| CCOc1ccc(Cl)cc1-c1cccc(OCC(N)=O)c1 [Compound 18] |  | 90.14% |  |
| Cc1sc2ccccc2c1CN1CCCn2nc(C(O)CO)cc2C1 (stereo not drawn) [Compound 21] |  | 85.14% |  |
| N[C@@H](Cc1cccc(C(F)(F)F)c1)C(=O)O [Compound 41] | 80 to 90% | 15.21% |  |
| CC(C)COc1ccc(C(N)CC(=O)O)cc1 (stereo not drawn) [Compound 27] |  | 67.96% | slightly active |
| CCCCN(Cc1ccsc1)C(=O)c1ccc(NS(=O)(=O)CC)cc1 [Compound 17] |  | 94.75% |  |
| NC(CSCc1cccc2ccccc12)C(=O)O (stereo not drawn) [Compound 33] | 80 to 90% | 17.86% | highly active |
| CN1CCCC(n2nc(Cc3ccc(Cl)cc3)c3ccccc3c2=O)CC1 (stereo not drawn) [Compound 30] |  | 94.08% |  |
| NC(Cc1cn(-c2ccccc2)nn1)C(=O)O (stereo not drawn) [Compound 34] |  | 77.12% | slightly active |
| CCOc1ccccc1CN(Cc1cc(O)c(OC)cn1)C1CC1 [Compound 19] |  | 93.06% |  |
| CCOc1ccc(Cl)cc1C(C(=O)O)N(C)Cc1cnccn1 (stereo not drawn) [Compound 24] |  | 100.72% |  |
| O=C(O)CNC(=O)c1nc(Cl)c2ccccc2c1O [Compound 31] |  | 91.83% |  |
| O=C(O)[C@@H]1C[C@H](n2cc(-c3ccccn3)nn2)CN1 [Compound 25] |  | 94.12% |  |
| O=C(c1ccc2[nH]c(CO)nc2c1)N(Cc1ccco1)Cc1cccs1 [Compound 22] |  | 93.36% |  |
| Cc1cc(OC(C)(C)C(=O)NCc2n[nH]c(=O)[nH]2)cc(C)c1Cl [Compound 20] |  | 90.07% |  |
